Where two headings read alike, the source gives them in different places.
Biological target: T1, human TRPM2 (Homo sapiens, UniProt O94759)
T1 construct: whole-cell patch clamp
Test: whole-cell patch clamp, current inhibition
Assay type: cell-based

[1] = compound in intracellular (pipette) solution with 0.1 mM ADPR as activator, room temperature, pH 7.3 inside, 7.4 outside

T1 sequence (O94759 whole entry): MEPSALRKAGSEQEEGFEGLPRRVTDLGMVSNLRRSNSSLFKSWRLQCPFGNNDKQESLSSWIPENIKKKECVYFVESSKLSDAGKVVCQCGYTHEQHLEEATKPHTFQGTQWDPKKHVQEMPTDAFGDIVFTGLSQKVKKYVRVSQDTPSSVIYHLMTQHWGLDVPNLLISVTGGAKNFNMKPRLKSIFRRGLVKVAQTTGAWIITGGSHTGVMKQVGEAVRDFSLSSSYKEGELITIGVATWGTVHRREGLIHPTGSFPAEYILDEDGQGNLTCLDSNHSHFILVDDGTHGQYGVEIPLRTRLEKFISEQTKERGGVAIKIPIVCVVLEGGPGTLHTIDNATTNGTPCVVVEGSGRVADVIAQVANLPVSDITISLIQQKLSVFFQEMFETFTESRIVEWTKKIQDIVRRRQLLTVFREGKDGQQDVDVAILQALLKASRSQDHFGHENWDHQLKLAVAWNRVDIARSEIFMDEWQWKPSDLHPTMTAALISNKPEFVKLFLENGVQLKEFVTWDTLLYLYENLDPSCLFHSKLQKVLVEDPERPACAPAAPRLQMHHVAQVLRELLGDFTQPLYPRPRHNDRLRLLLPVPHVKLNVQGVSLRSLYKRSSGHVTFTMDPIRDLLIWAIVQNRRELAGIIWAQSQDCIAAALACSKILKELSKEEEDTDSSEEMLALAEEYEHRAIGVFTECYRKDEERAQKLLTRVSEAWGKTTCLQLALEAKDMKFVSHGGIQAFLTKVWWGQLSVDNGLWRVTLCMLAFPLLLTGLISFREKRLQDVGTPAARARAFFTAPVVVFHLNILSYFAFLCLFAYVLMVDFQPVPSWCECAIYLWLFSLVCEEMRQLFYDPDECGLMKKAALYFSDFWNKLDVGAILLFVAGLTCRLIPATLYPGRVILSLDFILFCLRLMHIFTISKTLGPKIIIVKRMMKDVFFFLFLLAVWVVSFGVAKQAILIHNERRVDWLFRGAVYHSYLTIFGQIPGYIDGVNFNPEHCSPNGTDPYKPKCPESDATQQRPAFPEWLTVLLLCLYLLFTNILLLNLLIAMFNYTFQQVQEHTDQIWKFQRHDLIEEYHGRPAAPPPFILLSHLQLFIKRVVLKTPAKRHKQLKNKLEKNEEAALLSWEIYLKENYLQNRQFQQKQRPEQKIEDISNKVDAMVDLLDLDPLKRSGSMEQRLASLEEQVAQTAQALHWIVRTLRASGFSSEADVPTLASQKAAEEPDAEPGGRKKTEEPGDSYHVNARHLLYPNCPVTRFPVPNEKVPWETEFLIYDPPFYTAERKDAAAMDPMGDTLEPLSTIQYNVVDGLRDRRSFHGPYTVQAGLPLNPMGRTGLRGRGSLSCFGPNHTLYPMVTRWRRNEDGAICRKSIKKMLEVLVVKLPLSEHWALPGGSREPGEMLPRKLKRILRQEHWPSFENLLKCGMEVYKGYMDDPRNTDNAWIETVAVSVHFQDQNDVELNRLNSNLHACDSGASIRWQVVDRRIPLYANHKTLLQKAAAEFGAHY

For `COc1nc(N)c2ncn([C@@H]3O[C@H](COP(=O)(O)CP(=O)(O)OC[C@H]4OC(OC)[C@@H]5OC(C)(C)O[C@H]45)[C@H]4OC(C)(C)O[C@H]43)c2n1` (stereo partly drawn) [7d], the IC50 was greater than 100 µM.

In the case of `COc1nc(N)c2ncn([C@@H]3O[C@H](COP(=O)(O)C(F)(F)P(=O)(O)OC[C@H]4OC(OC)[C@@H]5OC(C)(C)O[C@H]45)[C@H]4OC(C)(C)O[C@H]43)c2n1` (stereo partly drawn) [7j], the IC50 is reported as greater than 100 µM.

Compound `COC1O[C@H](COP(=O)(O)C(F)(F)P(=O)(O)OC[C@H]2O[C@@H](n3cnc4c(N)nc(Br)nc43)[C@H](O)[C@@H]2O)[C@H]2OC(C)(C)O[C@@H]12` (stereo partly drawn) [8d, 1″‐O‐methyl‐2″,3″‐O‐isopropylidene‐5′‐difluoromethylenediphosphoribose‐2‐bromoadenosine] has an IC50 greater than 100 µM.

`COC1O[C@H](COP(=O)(O)OP(=O)(O)OC[C@H]2O[C@@H](n3cnc4c(N)ncnc43)[C@@H]3OC(C)(C)O[C@@H]32)[C@H]2OC(C)(C)O[C@@H]12` (stereo partly drawn) [7l] was tested, and the IC50 was greater than 100 µM.

`COC1O[C@H](COP(=O)(O)C(F)(F)P(=O)(O)OC[C@H]2O[C@@H](n3cnc4c(N)nc(I)nc43)[C@@H]3OC(C)(C)O[C@@H]32)[C@H]2OC(C)(C)O[C@@H]12` (stereo partly drawn) [7o] gave an IC50 greater than 100 µM.

`Nc1nc(Br)nc2c1ncn2[C@@H]1O[C@H](COP(=O)(O)CP(=O)(O)OC[C@H]2OC(O)[C@H](O)[C@@H]2O)[C@@H](O)[C@H]1O` (stereo partly drawn) [10c] showed an IC50 greater than 100 µM.

Work on `Nc1nc(Br)nc2c1ncn2[C@@H]1O[C@H](COP(=O)(O)C(F)(F)P(=O)(O)OC[C@H]2OC(O)[C@H](O)[C@@H]2O)[C@@H](O)[C@H]1O` (stereo partly drawn) [10n, difluoromethylenediphosphoribose‐2‐bromoadenosine] yielded an IC50 [1] greater than 100 µM.

`COC1O[C@H](COP(=O)(O)CP(=O)(O)OC[C@H]2O[C@@H](n3cnc4c(N)ncnc43)[C@H](OC)[C@@H]2O)[C@H]2OC(C)(C)O[C@@H]12` (stereo partly drawn) [compound 13, 1″‐O‐methyl‐2″,3″‐O‐isopropylidene‐2′‐methoxy‐5′‐methylenediphoribose adenosine] showed an IC50 greater than 100 µM.

For `CNc1ncnc2c1ncn2[C@@H]1O[C@H](COP(=O)(O)CP(=O)(O)OC[C@H]2OC(O)[C@H](O)[C@@H]2O)[C@@H](O)[C@H]1O` (stereo partly drawn) [10f], the IC50 was greater than 100 µM.

`COC1O[C@H](COP(=O)(O)C(F)(F)P(=O)(O)OC[C@H]2O[C@@H](n3cnc4c(N)nc(Br)nc43)[C@H](O)[C@@H]2O)[C@@H](O)[C@H]1O` (stereo partly drawn) [9a, 1″‐O‐methyl‐difluoromethylenediphosphoribose‐2‐bromoadenosine] showed an IC50 greater than 100 µM.

Work on `CNc1ncnc2c1ncn2[C@@H]1O[C@H](COP(=O)(O)CP(=O)(O)OC[C@H]2OC(OC)[C@@H]3OC(C)(C)O[C@H]23)[C@H]2OC(C)(C)O[C@H]21` (stereo partly drawn) [7f] yielded an IC50 greater than 100 µM.

Compound `COC1O[C@H](COP(=O)(O)CP(=O)(O)OC[C@H]2O[C@@H](n3cnc4c(N)ncnc43)[C@H](O)[C@@H]2O)[C@H]2OC(C)(C)O[C@@H]12` (stereo partly drawn) [8a, 1″‐O‐methyl‐2″,3″‐O‐isopropylidene‐5′‐methylenediphosphoribose adenosine] has an IC50 of 5.4 µM.

`Nc1nc(Cl)nc2c1ncn2[C@@H]1O[C@H](COP(=O)(O)CP(=O)(O)OC[C@H]2OC(O)[C@H](O)[C@@H]2O)[C@@H](O)[C@H]1O` (stereo partly drawn) [10b] gave an IC50 greater than 100 µM.

`COC1O[C@H](COP(=O)(O)CP(=O)(O)OC[C@H]2O[C@@H](n3cnc4c(N)nc(N)nc43)[C@@H]3OC(C)(C)O[C@@H]32)[C@H]2OC(C)(C)O[C@@H]12` (stereo partly drawn) [7e] was tested, and the IC50 was greater than 100 µM.

In the case of `COC1O[C@H](COP(=O)(O)C(F)(F)P(=O)(O)OC[C@H]2O[C@@H](n3cnc4c(N)nc(Cl)nc43)[C@@H]3OC(C)(C)O[C@@H]32)[C@H]2OC(C)(C)O[C@@H]12` (stereo partly drawn) [7i], the IC50 is reported as 5.7 µM.

Work on `COC1O[C@H](COP(=O)(O)C(F)(F)P(=O)(O)OC[C@H]2O[C@@H](n3cnc4c(N)ncnc43)[C@@H]3OC(C)(C)O[C@@H]32)[C@H]2OC(C)(C)O[C@@H]12` (stereo partly drawn) [7h] yielded an IC50 greater than 100 µM.

With `COC1O[C@H](COP(=O)(O)C(F)(F)P(=O)(O)OC[C@H]2O[C@@H](n3cnc4c(N)nc(Cl)nc43)[C@H](O)[C@@H]2O)[C@H]2OC(C)(C)O[C@@H]12` (stereo partly drawn) [8c] the IC50 was greater than 100 µM.

`Nc1ncnc2c1ncn2[C@@H]1O[C@H](COP(=O)(O)OP(=O)(O)OC[C@H]2OC(O)[C@H](O)[C@@H]2O)[C@@H](O)[C@H]1O` (stereo partly drawn) [10l] showed an IC50 (compound in intracellular solution with 0.1 mM ADPR, drawn structure is ADPR itself, the channel activator) greater than 100 µM.

For `COC1O[C@H](COP(=O)(O)CP(=O)(O)OC[C@H]2O[C@@H](n3cnc4c(N)nc(Br)nc43)[C@@H]3OC(C)(C)O[C@@H]32)[C@H]2OC(C)(C)O[C@@H]12` (stereo partly drawn) [7c], the IC50 was greater than 100 µM.

`COc1nc(N)c2ncn([C@@H]3O[C@H](COP(=O)(O)C(F)(F)P(=O)(O)OC[C@H]4OC(O)[C@H](O)[C@@H]4O)[C@@H](O)[C@H]3O)c2n1` (stereo partly drawn) [10j] gave an IC50 greater than 100 µM.

For `COC1O[C@H](COP(=O)(O)CP(=O)(O)OC[C@H]2O[C@@H](n3cnc4c(N)ncnc43)[C@@H]3OC(C)(C)O[C@@H]32)[C@H]2OC(C)(C)O[C@@H]12` (stereo partly drawn) [7a, 1″‐O‐methyl‐2″,2′,3″,3′‐O‐isopropylidene‐5′‐methylenediphoribose adenosine], the IC50 was greater than 100 µM.

`COC1O[C@H](COP(=O)(O)C(F)(F)P(=O)(O)OC[C@H]2O[C@@H](n3cnc4c(N)nc(I)nc43)[C@H](O)[C@@H]2O)[C@@H](O)[C@H]1O` (stereo partly drawn) [9b] gave an IC50 greater than 100 µM.

With `Nc1ncnc2c1ncn2[C@@H]1O[C@H](COP(=O)(O)CP(=O)(O)OC[C@H]2OC(O)[C@H](O)[C@@H]2O)[C@@H](O)[C@H]1O` (stereo partly drawn) [10a, methylenediphosphoribose adenosine] the IC50 [1] was greater than 100 µM.

For `COc1nc(N)c2ncn([C@@H]3O[C@H](COP(=O)(O)CP(=O)(O)OC[C@H]4OC(O)[C@H](O)[C@@H]4O)[C@@H](O)[C@H]3O)c2n1` (stereo partly drawn) [10d], the IC50 was greater than 100 µM.

Compound `COC1O[C@H](COP(=O)(O)C(F)(F)P(=O)(O)OC[C@H]2O[C@@H](n3cnc4c(N)nc(N)nc43)[C@@H]3OC(C)(C)O[C@@H]32)[C@H]2OC(C)(C)O[C@@H]12` (stereo partly drawn) [7k] has an IC50 greater than 100 µM.

`Nc1nc(I)nc2c1ncn2[C@@H]1O[C@H](COP(=O)(O)CP(=O)(O)OC[C@H]2OC(O)[C@H](O)[C@@H]2O)[C@@H](O)[C@H]1O` (stereo partly drawn) [10m] gave an IC50 greater than 100 µM.

Work on `Nc1nc(Cl)nc2c1ncn2[C@@H]1O[C@H](COP(=O)(O)C(F)(F)P(=O)(O)OC[C@H]2OC(O)[C@H](O)[C@@H]2O)[C@@H](O)[C@H]1O` (stereo partly drawn) [10i] yielded an IC50 greater than 100 µM.

`Nc1nc(N)c2ncn([C@@H]3O[C@H](COP(=O)(O)CP(=O)(O)OC[C@H]4OC(O)[C@H](O)[C@@H]4O)[C@@H](O)[C@H]3O)c2n1` (stereo partly drawn) [10e] showed an IC50 greater than 100 µM.

Compound `CN(C)c1ncnc2c1ncn2[C@@H]1O[C@H](COP(=O)(O)CP(=O)(O)OC[C@H]2OC(O)[C@H](O)[C@@H]2O)[C@@H](O)[C@H]1O` (stereo partly drawn) [10g] has an IC50 greater than 100 µM.

Compound `COC1O[C@H](COP(=O)(O)C(F)(F)P(=O)(O)OC[C@H]2O[C@@H](n3cnc4c(N)nc(Br)nc43)[C@@H]3OC(C)(C)O[C@@H]32)[C@H]2OC(C)(C)O[C@@H]12` (stereo partly drawn) [7n, 1″‐O‐methyl‐2″,2′,3″,3′‐O‐isopropylidene‐5′‐difluoromethylenediphosphoribose‐2‐bromoadenosine] has an IC50 greater than 100 µM.

With `COC1O[C@H](COP(=O)(O)CP(=O)(O)OC[C@H]2O[C@@H](n3cnc4c(N)nc(Cl)nc43)[C@@H]3OC(C)(C)O[C@@H]32)[C@H]2OC(C)(C)O[C@@H]12` (stereo partly drawn) [7b] the IC50 was greater than 100 µM.

Compound `COC1O[C@H](COP(=O)(O)CP(=O)(O)OC[C@H]2O[C@@H](n3cnc4c(N(C)C)ncnc43)[C@@H]3OC(C)(C)O[C@@H]32)[C@H]2OC(C)(C)O[C@@H]12` (stereo partly drawn) [7g] has an IC50 greater than 100 µM.

In the case of `CO[C@@H]1[C@H](O)[C@@H](COP(=O)(O)CP(=O)(O)OC[C@H]2OC(O)[C@H](O)[C@@H]2O)O[C@H]1n1cnc2c(N)ncnc21` (stereo partly drawn) [compound 14, 2′‐methoxy‐5′‐methylenediphoribose adenosine], the IC50 is reported as greater than 100 µM.

For `Nc1nc(I)nc2c1ncn2[C@@H]1O[C@H](COP(=O)(O)C(F)(F)P(=O)(O)OC[C@H]2OC(O)[C@H](O)[C@@H]2O)[C@@H](O)[C@H]1O` (stereo partly drawn) [10o], the IC50 was greater than 100 µM.

Compound `COC1O[C@H](COP(=O)(O)C(F)(F)P(=O)(O)OC[C@H]2O[C@@H](n3cnc4c(N)nc(I)nc43)[C@H](O)[C@@H]2O)[C@H]2OC(C)(C)O[C@@H]12` (stereo partly drawn) [8e] has an IC50 greater than 100 µM.

For `Nc1ncnc2c1ncn2[C@@H]1O[C@H](COP(=O)(O)C(F)(F)P(=O)(O)OC[C@H]2OC(O)[C@H](O)[C@@H]2O)[C@@H](O)[C@H]1O` (stereo partly drawn) [10h], the IC50 was greater than 100 µM.

`Nc1nc(N)c2ncn([C@@H]3O[C@H](COP(=O)(O)C(F)(F)P(=O)(O)OC[C@H]4OC(O)[C@H](O)[C@@H]4O)[C@@H](O)[C@H]3O)c2n1` (stereo partly drawn) [10k] was tested, and the IC50 was greater than 100 µM.

`COC1O[C@H](COP(=O)(O)CP(=O)(O)OC[C@H]2O[C@@H](n3cnc4c(N)nc(I)nc43)[C@@H]3OC(C)(C)O[C@@H]32)[C@H]2OC(C)(C)O[C@@H]12` (stereo partly drawn) [7m] showed an IC50 greater than 100 µM.

`COC1O[C@H](COP(=O)(O)CP(=O)(O)OC[C@H]2O[C@@H](n3cnc4c(N)nc(Cl)nc43)[C@H](O)[C@@H]2O)[C@H]2OC(C)(C)O[C@@H]12` (stereo partly drawn) [8b] gave an IC50 greater than 100 µM.

Source: publication PMC5813235, “Selective inhibition of TRPM2 channel by two novel synthesized ADPR analogues” (Chemical Biology & Drug Design, 2017)
